Experimental data reported in article PMC9696794, “Synthesis and Antimicrobial Activity of Short Analogues of the Marine Antimicrobial Peptide Turgencin A: Effects of SAR Optimizations, Cys-Cys Cyclization and Lipopeptide Modifications” (International Journal of Molecular Sciences, 2022).
In brackets after ≈: the same amount, converted by molar mass. Where two headings read alike, the source gives them in different places. Where a SMILES comes first, the peptide text is derived from it. Bridges are numbered along the chain shown (N, C = ends). The star is where a group is joined. Octanoyl = CCCCCCCC(=O)*

What was measured:
E. coli (Ec, ATCC 25922) = test: microbe, parasite or virus in culture; format: cell-based, Escherichia coli; conditions: for MIC: Escherichia coli
Summary of the method: (§1)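 Cultures grown in Mueller–Hinton broth were adjusted by OD600 to 2.5–3 × 10^4 CFU/mL and mixed with two-fold peptide dilutions from 256 to 1 µg/mL. Plates were incubated at 35 °C with OD595 monitored every hour for 24 h.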

[1] = tested on: E. coli MC4100 (wild type, WT); test: microbe, parasite or virus in culture; conditions: for MIC: Escherichia coli, read-out: MIC E. coli MC4100 (WT); for MIC E. coli MC4100 (WT): wild type
Experimental: (§2) All cyclic and linear peptides were screened for antibacterial activity against four Gram-positive strains: B. subtilis (Bs, ATCC 23857), C. glutamicum (Cg, ATCC 13032), S. aureus (Sa, ATCC 9144) and S. epidermidis RP62A (Se, ATCC 35984), and two Gram-negative strains: E. coli (Ec, ATCC 25922) and P. aeruginosa (Pa, ATCC 27853). The activity was assessed using a broth microdilution assay according to a modified CLSI-based method. Briefly, overnight bacterial cultures were grown in Mueller–Hinton (MH) broth medium (Difco Laboratories, Detroit, MI, USA) for 2 h at room temperature. The optical density (OD600) was measured, and the bacterial suspensions were adjusted to 2.5–3 × 10^4 CFU/mL in MH medium. The bacterial suspension (50 µL) was distributed in 96-well plates (Nunc, Roskilde, Denmark) preloaded with two-fold dilution series (256 to 1 µg/mL) of peptide solutions (50 µL), giving a final well volume of 100 µL. The microplates were incubated in an EnVision 2103 microplate reader (PerkinElmer, Llantrisant, UK) at 35 °C, with OD595 recorded every hour for 24 h. MIC was defined as the lowest concentration of peptides showing an optical density less than 10% of the negative (growth) control, consisting of bacterial suspension and water. Polymyxin B sulfate (Sigma-Aldrich, St. Louis, MO, USA) and chlorhexidine acetate (CHX, Fresenius Kabi, Halden, Norway), both with concentrations ranging from 12.5 to 0.09 μg/mL, served as positive (growth inhibition) controls. All peptides were tested in triplicate.
(§3) MIC values were determined for all cyclic peptides against two E. coli strains: wild type (WT) MC4100 and the hyperpermeable variant NR698, having a deficient outer membrane. The NR698 strain, containing lptD4213/imp4213 mutation, was kindly provided by M. Grabowicz (Emory University School of Medicine, Rollins Research Center, Atlanta, GA, USA). The assay was performed in the same way as previously described for the antibacterial MIC assay.

[2] = tested on: E. coli NR698 (outer membrane permeable mutant, imp4213); test: microbe, parasite or virus in culture; conditions: for MIC: Escherichia coli, read-out: MIC E. coli NR698 (mutant); for MIC E. coli NR698 (mutant): MC4100 NR698 imp4213, deficient outer membrane
Experimental: as §2, §3

[3] = tested on: B. subtilis (Bs, ATCC 23857); test: microbe, parasite or virus in culture; format: cell-based, Bacillus subtilis
Summary of the method: as §1

[4] = tested on: human red blood cells (RBC); test: Haemolytic activity assay; format: cell-based
Summary of the method: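 Washed human erythrocytes (1% hematocrit final) incubated 1 h at 37 °C with agitation with lipopeptides at 500–3.9 μM in PBS (≤1% DMSO), duplicates. Haemoglobin release read at 545 nm relative to 0.1% Triton X-100; EC50 is 50% haemolysis, averaged from three experiments.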

[5] = tested on: C. albicans (Ca, ATCC 10231); test: microbe, parasite or virus in culture; format: cell-based, Candida albicans
Summary of the method: (§4)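 Overnight cultures in potato dextrose broth with 2% glucose at 25–30 °C were diluted to approx. 4 × 10^5 spores/mL and mixed 1:1 with two-fold peptide dilutions plated at 256 to 1 µg/mL. After 48 h at room temperature, OD600 was read. MIC was the lowest concentration giving OD below 10% of the growth control, in triplicate.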

[6] = tested on: C. glutamicum (Cg, ATCC 13032); test: microbe, parasite or virus in culture; format: cell-based, Corynebacterium glutamicum
Summary of the method: as §1

[7] = tested on: Gram-negative bacterial strains (E. coli and P. aeruginosa); test: Antibacterial MIC assay, Gram-negative strains together (range or geometric mean); format: cell-based; conditions: Table S3; MIC >256 set to 256
Summary of the method: as §1

[8] = tested on: S. epidermidis RP62A (Se, ATCC 35984); test: microbe, parasite or virus in culture; format: cell-based, Staphylococcus epidermidis
Summary of the method: as §1

[9] = tested on: Gram-positive bacterial strains; conditions: Table S3; MIC >256 set to 256
Summary of the method: as §1

all bacterial strains = test: Antibacterial MIC assay, all bacterial strains together (range or geometric mean); format: cell-based; conditions: for GM (geometric mean of the MIC values against all bacterial strains): Table 1, six bacterial strains; for GM of MIC Tot. bact.: Table S3, all bacterial test strains, MIC >256 set to 256
Summary of the method: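 Broth microdilution in Mueller–Hinton broth against B. subtilis, C. glutamicum, S. aureus, S. epidermidis RP62A, E. coli and P. aeruginosa; inoculum 2.5–3 × 10^4 CFU/mL, 35 °C, OD595 read hourly for 24 h. MIC: lowest peptide concentration giving OD below 10% of growth control; geometric mean across strains, triplicate.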

[10] = tested on: fungi (A. pullulans, C. albicans, Rhodotorula sp.); test: Antifungal MIC assay, all fungi together (range or geometric mean); format: cell-based; conditions: Table S3; MIC >128 set to 128
Summary of the method: as §4

[11] = tested on: S. aureus (Sa, ATCC 9144); test: microbe, parasite or virus in culture; format: cell-based, Staphylococcus aureus
Summary of the method: as §1

A. pullulans (Ap) = test: microbe, parasite or virus in culture; format: cell-based, Aurobasidium pollulans; conditions: 48 h
Summary of the method: as §4

[12] = tested on: P. aeruginosa (Pa, ATCC 27853); test: microbe, parasite or virus in culture; format: cell-based, Pseudomonas aeruginosa
Summary of the method: as §1

Rhodotorula sp. (Rh) = test: microbe, parasite or virus in culture; format: cell-based; conditions: 48 h
Summary of the method: as §4

Row | Compound | MIC [1] [mg/L] | MIC [2] [mg/L] | Antimicrobial Activity (MIC) Gram + Bs ([3]; ATCC 23857, 24 h) [mg/L] | Antimicrobial Activity (MIC) Gram − Ec (E. coli (Ec, ATCC 25922); ATCC 25922, 24 h) [mg/L] | Antimicrobial Activity (MIC) Fungi Ca ([5]; ATCC 10231, 48 h) [mg/L] | Antimicrobial Activity (MIC) Gram + Cg ([6]; ATCC 13032, 24 h) [mg/L] | GM of MIC G- [7] [mg/L] | Antimicrobial Activity (MIC) Gram + Se ([8]; ATCC 35984, 24 h) [mg/L] | MIC E. coli MC4100 (WT) [1] [mg/L] | MIC E. coli NR698 (mutant) [2] [mg/L] | GM of MIC G+ [9] [mg/L] | GM (geometric mean of the MIC values against all bacterial strains) (all bacterial strains) [mg/L] | GM of MIC Tot. bact. (all bacterial strains) [mg/L] | GM of MIC Fungi [10] [mg/L] | Antimicrobial Activity (MIC) Gram + Sa ([11]; ATCC 9144, 24 h) [mg/L] | Antimicrobial Activity (MIC) Fungi Ap (A. pullulans (Ap)) [mg/L] | Antimicrobial Activity (MIC) Gram − Pa ([12]; ATCC 27853, 24 h) [mg/L] | Antimicrobial Activity (MIC) Fungi Rh (Rhodotorula sp. (Rh)) [mg/L] | further results
1 | O=C(N[C@H](CO)[C@H](O)c1ccc([N+](=O)[O-])cc1)C(Cl)Cl [Chloramphenicol, reference compound] | 12.5 (≈ 38.7 µM) | 3.1 (≈ 9.59 µM) | – | – | – | – | – | – | – | – | – | – | – | – | – | – | – | – | MIC (E. coli (Ec, ATCC 25922); ATCC25922, Table 2, laboratory strain, read-out: MIC E. coli ATCC 25922 (from Table 1)): 1.8 mg/L (≈ 5.57 µM)
2 | CCCCCCCC(=O)N[C@H]1CSSC[C@@H](C(=O)N[C@@H](CCCCN)C(=O)N[C@@H](CC(C)C)C(N)=O)NC(=O)[C@H](CCCCN)NC(=O)[C@H](Cc2c[nH]c3ccccc23)NC(=O)CNC(=O)CNC(=O)[C@@H]2CCCN2C(=O)[C@H](CCCCN)NC(=O)[C@H](CCCCN)NC(=O)CNC1=O [Peptide C8-cTurg-1, C8 -(CGKKPGGWKC)KL-NH2] (Octanoyl-CGKKPGGWKCKL-NH2; disulfide 1-10) | – | – | 4 | 32 | 64 | 4 | 64 | 32 | 16 (≈ 11.2 µM) | 8 (≈ 5.6 µM) | 16 | 25 | 25 | 32 | 128 | 64 | 128 | 8 | Selectivity index (SI) G- ([4]; Table S3, EC50/GM of Gram-negative strains, highest tested concentration used where EC50 above it): > 15; Selectivity index (SI) G+ ([4]; Table S3, EC50/GM of Gram-positive strains, highest tested concentration used where EC50 above it): > 59; Selectivity index (SI) Fungi ([4]; Table S3, EC50/GM of fungi, highest tested concentration used where EC50 above it): > 29; SI (selectivity index = EC50/GM) ([4]; haemolytic EC50 over GM of MIC against all bacterial strains, Table 1): >37; RBC Tox. (EC50), haemolytic activity ([4]; human RBC, 1 h, 37 °C, concentration giving 50% haemolysis): >942 mg/L
3 | CN[C@H](CC(C)C)C(=O)N[C@H]1C(=O)N[C@@H](CC(N)=O)C(=O)N[C@H]2C(=O)N[C@H]3C(=O)N[C@H](C(=O)N[C@H](C(=O)O)c4cc(O)cc(O)c4-c4cc3ccc4O)[C@H](O)c3ccc(c(Cl)c3)Oc3cc2cc(c3O[C@@H]2O[C@H](CO)[C@@H](O)[C@H](O)[C@H]2O[C@H]2C[C@](C)(N)[C@H](O)[C@H](C)O2)Oc2ccc(cc2Cl)[C@H]1O [Vancomycin, reference compound] | 64 (≈ 44.2 µM) | 0.3 (≈ 0.207 µM) | – | – | – | – | – | – | – | – | – | – | – | – | – | – | – | – | MIC (E. coli (Ec, ATCC 25922); ATCC25922, read-out: MIC E. coli ATCC 25922 (from Table 1)): 125 mg/L (≈ 86.3 µM)
4 | CC(C)C[C@H](NC(=O)[C@H](CCCCN)NC(=O)[C@@H]1CSSC[C@H](N)C(=O)NCC(=O)N[C@@H](CCCCN)C(=O)N[C@@H](CCCCN)C(=O)N2CCC[C@H]2C(=O)NCC(=O)NCC(=O)N[C@@H](Cc2c[nH]c3ccccc23)C(=O)N[C@@H](CCCCN)C(=O)N1)C(N)=O [cTurg-1] (H-CGKKPGGWKCKL-NH2; disulfide 1-10; N-terminus assumed) | – | – | 256 | >256 | 128 | 16 | 256 | >256 | – | 64 (≈ 49.2 µM) | 128 | 161 | 161 | 64 | >256 | 32 | >256 | 64 | MIC against all bacterial strains (all bacterial strains; span over the strains): ≥ 256 mg/L
5 | Polymyxin B [reference compound] | – | – | – | – | – | – | – | – | 0.8 | 0.2 | – | – | – | – | – | – | – | – | Antimicrobial Activity (MIC) Gram + Bs ([3]; B. subtilis ATCC 23857, 24 h): 3.1 mg/L; Antimicrobial Activity (MIC) Gram − Ec (E. coli (Ec, ATCC 25922); E. coli ATCC 25922, 24 h): 3.1 mg/L; MIC E. coli ATCC 25922 (from Table 1) (E. coli (Ec, ATCC 25922); Table 2, laboratory strain): 3.1 mg/L; Antimicrobial Activity (MIC) Fungi Ca ([5]; C. albicans ATCC 10231, 48 h): 12.5 mg/L; Antimicrobial Activity (MIC) Gram + Cg ([6]; C. glutamicum ATCC 13032, 24 h): 3.1 mg/L; Antimicrobial Activity (MIC) Gram + Se ([8]; S. epidermidis RP62A ATCC 35984, 24 h): 6.3 mg/L; Antimicrobial Activity (MIC) Gram + Sa ([11]; S. aureus ATCC 9144, 24 h): 12.5 mg/L; Antimicrobial Activity (MIC) Fungi Ap (A. pullulans (Ap); A. pullulans): 3.1 mg/L; Antimicrobial Activity (MIC) Gram − Pa ([12]; P. aeruginosa ATCC 27853, 24 h): 3.1 mg/L; Antimicrobial Activity (MIC) Fungi Rh (Rhodotorula sp. (Rh); Rhodotorula sp.): 3.1 mg/L
